Results as given in patent publication US20260297060A1, “COMPOUNDS FOR THE DEGRADATION OF MUTANT BRAF” (C4 THERAPEUTICS, INC., priority 2023, published 2026).
Read-outs that look alike come from different tables or passages of the source.

Key:
BRAF V600E = molecular target: T1, BRAF V600E (Homo sapiens, UniProt P15056+Q96SW2, V600E); experiment: BRAF V600E HiBiT Degradation Assay; assay type: cell-based
T1 construct: knock-in of the HiBiT tag to the endogenous BRAF V600E locus; host or cells: A375.10 (A375 clonal line, CRISPR HiBiT knock-in at the endogenous BRAF V600E locus)
T1 sequence (P15056 whole entry V600E): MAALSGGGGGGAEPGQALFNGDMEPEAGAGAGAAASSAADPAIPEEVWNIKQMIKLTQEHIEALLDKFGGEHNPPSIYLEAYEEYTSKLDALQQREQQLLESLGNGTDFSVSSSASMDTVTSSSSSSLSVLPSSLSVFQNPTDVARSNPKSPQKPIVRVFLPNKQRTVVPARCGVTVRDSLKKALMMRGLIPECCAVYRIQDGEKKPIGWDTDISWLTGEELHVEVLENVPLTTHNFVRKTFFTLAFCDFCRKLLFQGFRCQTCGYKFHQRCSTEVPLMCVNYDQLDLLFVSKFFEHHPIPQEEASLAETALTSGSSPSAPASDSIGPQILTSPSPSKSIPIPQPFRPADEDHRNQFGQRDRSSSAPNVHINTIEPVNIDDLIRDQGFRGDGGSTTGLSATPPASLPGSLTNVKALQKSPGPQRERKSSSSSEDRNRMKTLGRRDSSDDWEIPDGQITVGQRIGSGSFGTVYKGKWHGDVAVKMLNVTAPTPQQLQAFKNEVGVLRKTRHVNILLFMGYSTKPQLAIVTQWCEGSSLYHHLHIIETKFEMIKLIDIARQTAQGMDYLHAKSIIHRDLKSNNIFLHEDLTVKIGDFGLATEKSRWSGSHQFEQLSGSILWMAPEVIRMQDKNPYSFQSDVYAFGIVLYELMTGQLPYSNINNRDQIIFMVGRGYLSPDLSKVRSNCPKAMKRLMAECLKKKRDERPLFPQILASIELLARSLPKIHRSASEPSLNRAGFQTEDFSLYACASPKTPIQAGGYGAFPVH
T1 sequence (Q96SW2 whole entry): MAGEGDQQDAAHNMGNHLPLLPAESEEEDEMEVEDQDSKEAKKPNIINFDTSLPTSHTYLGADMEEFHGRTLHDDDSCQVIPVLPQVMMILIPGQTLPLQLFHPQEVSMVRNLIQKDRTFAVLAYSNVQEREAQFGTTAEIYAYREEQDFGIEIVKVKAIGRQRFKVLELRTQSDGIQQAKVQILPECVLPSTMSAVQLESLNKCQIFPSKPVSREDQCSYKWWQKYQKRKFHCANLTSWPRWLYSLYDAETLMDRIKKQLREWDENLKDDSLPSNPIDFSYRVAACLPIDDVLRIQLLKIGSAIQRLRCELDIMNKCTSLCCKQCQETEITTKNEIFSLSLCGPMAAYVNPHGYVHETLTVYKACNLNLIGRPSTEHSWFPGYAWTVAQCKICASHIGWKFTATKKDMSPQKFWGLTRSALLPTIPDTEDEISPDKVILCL
T1 sequence (Q16531 whole entry partner): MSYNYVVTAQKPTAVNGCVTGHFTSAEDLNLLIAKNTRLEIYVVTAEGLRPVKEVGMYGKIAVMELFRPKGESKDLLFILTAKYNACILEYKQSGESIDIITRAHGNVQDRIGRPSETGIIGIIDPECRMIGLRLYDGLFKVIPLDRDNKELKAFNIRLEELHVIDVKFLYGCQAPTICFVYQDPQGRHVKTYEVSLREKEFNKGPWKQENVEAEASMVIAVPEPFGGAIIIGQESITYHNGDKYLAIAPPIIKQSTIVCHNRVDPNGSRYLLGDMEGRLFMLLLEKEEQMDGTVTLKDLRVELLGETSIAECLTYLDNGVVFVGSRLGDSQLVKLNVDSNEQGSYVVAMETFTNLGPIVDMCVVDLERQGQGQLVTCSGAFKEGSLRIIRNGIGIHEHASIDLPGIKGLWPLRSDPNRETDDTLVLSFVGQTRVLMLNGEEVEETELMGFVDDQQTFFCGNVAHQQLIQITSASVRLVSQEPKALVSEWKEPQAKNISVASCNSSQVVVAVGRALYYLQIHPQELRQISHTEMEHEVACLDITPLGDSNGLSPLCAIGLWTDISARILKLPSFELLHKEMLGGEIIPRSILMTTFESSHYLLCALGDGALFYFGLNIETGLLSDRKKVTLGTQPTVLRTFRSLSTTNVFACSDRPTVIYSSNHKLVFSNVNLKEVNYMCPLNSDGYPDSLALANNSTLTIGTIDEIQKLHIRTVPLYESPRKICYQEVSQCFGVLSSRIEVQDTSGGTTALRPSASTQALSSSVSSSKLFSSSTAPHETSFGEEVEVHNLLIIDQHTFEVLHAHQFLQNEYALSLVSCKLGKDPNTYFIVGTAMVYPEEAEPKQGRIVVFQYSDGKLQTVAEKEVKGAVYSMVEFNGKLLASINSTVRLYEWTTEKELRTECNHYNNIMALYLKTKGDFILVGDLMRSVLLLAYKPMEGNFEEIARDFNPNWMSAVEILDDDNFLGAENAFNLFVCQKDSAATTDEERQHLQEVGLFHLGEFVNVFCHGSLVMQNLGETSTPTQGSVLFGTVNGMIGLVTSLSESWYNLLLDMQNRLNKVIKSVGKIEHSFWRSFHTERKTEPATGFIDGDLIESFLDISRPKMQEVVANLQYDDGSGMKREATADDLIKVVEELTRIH
How it was run: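 Endogenous HiBiT knock-in on BRAF V600E in A375 cells (clone A375.10); 11-point half-log series, top 10 μM, 2, 6 or 24 h at 37° C. Lytic HiBiT luminescence, background-subtracted, normalized to DMSO; 4-parameter fit gives DC50, Emax (residual protein) and IP (inflection point).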

A375-NRAS^Q61K cells = experiment: CTGlo Cell Viability Assay, A375-NRAS^Q61K (A375.11) cells, 96 hours; assay type: cell-based, human; settings: A375.11 (A375-NRAS^Q61K) cells; for CTGlo A375.11 96 hours Emax / Emax: lowest % viability achieved
How it was run: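 Viability as CellTiter-Glo ATP luminescence after 96 h compound exposure at 37 °C; A375.11 (BRAF V600E/NRAS Q61K) cells at 250/well, top final concentration 10 μM in half-log steps. Signal was background-corrected and set relative to DMSO controls. A 4-parameter logistic fit gave GI50 (50% crossing) and Emax.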

[1] = A375.10 cells, BRAF V600E, 2 hours, read-out: HiBiT-Degradation A375.10 BRAF 2 hours DC50
[2] = A375.10 cells, BRAF V600E, 2 hours, residual protein remaining
[3] = A375.10 cells, BRAF V600E, 2 hours, inflection point, read-out: HiBiT-Degradation A375.10 BRAF 2 hours IP
[4] = A375.10 cells, BRAF V600E, 2 hours, residual protein remaining, read-out: HiBiT-Degradation A375.10 BRAF 2 hours Emax
[5] = read-out: HiBiT-Degradation A375.10 BRAF 2 hours Emax, A375.10 cells, BRAF V600E, 2 hours, residual protein remaining
[6] = A375.10 cells, HiBiT, BRAF V600E, 24 hours, read-out: HiBiT-Degradation A375.10 BRAF 24 hours DC50
[7] = A375.10 cells, HiBiT, BRAF V600E, 24 hours, read-out: HiBiT-Degradation A375.10 BRAF 24 hours IP

SMILES | DC50 (BRAF V600E; [1]) | GI50 (A375-NRAS^Q61K cells) | CTGlo A375.11 96 hours Emax (A375-NRAS^Q61K cells) | DC50 (BRAF V600E; [3]) | Emax (BRAF V600E; [4]) | GI50 (A375-NRAS^Q61K cells; Homo sapiens, 96 h) | Emax (A375-NRAS^Q61K cells; Homo sapiens, 96 h) | also measured
CCN(C)S(=O)(=O)Nc1ccc(F)c(Oc2ccc3ncn([C@H]4CO[C@@]5(CCN(C6CCC(c7cc8c(cc7F)c(N7CCC(=O)NC7=O)nn8C)CC6)C5)C4)c(=O)c3c2)c1C#N (single isomer, unassigned) [Compound 293] | < 1000 nM | < 1000 nM | ** (<90% and >50%) | – | – | – | – | HiBiT-Degradation A375.10 BRAF 2 hours Emax (BRAF V600E; [2]): *** (<=50%)
CCN(C)S(=O)(=O)Nc1ccc(F)c(Oc2ccc3ncn([C@H]4COC5(CCC(N6C7COCC6CC(c6cc8c(cc6F)c(N6CCC(=O)NC6=O)nn8C)C7)CC5)C4)c(=O)c3c2)c1C#N (single isomer, unassigned) [Compound 155] | < 1000 nM | – | – | < 1000 nM | 50 to 90% | > 10000 nM | 50 to 90% | –
CO[C@H]1CCN(S(=O)(=O)Nc2ccc(F)c(Oc3ccc4ncn(C5CC6(CCN(C7CC8(C7)CN(c7cc9c(cc7F)c(N7CCC(=O)NC7=O)nn9C)C8)CC6)C5)c(=O)c4c3)c2C#N)C1 (stereo partly drawn) [Compound 272, (3S)-N-[2-cyano-3-[3-[7-[2-[3-(2,4-dioxohexahydropyrimidin-1-yl)-5-fluoro-1-methyl-indazol-6-yl]-2-azaspiro[3.3]heptan-6-yl]-7-azaspiro[3.5]nonan-2-yl]-4-oxo-quinazolin-6-yl]oxy-4-fluoro-phenyl]-3-methoxy-pyrrolidine-1-sulfonamide] | – | – | – | – | – | > 10000 nM | 50 to 90% | DC50 (BRAF V600E; read-out: HiBiT-Degradation A375.10 BRAF 2 hours DC50, A375.10 cells, BRAF V600E, 2 hours): < 1000 nM; Emax (BRAF V600E; [5]): < 50%; DC50 (BRAF V600E; read-out: HiBiT-Degradation A375.10 BRAF 2 hours IP, A375.10 cells, BRAF V600E, 2 hours, inflection point): < 1000 nM
CCN(C)S(=O)(=O)Nc1ccc(F)c(Oc2ccc3ncn(C4CC5(C4)CN(C4CCC(c6cc7c(cc6F)c(N6CCC(=O)NC6=O)nn7C)CC4F)C5)c(=O)c3c2)c1C#N (single isomer, unassigned) [Compound 299] | 1000 to 10000 nM | – | – | < 1000 nM | – | 1000 to 10000 nM | 50 to 90% | DC50 (BRAF V600E; [6]): < 1000 nM; Emax (BRAF V600E; A375.10 cells, HiBiT, BRAF V600E, 24 hours, read-out: HiBiT-Degradation A375.10 BRAF 24 hours Emax): < 50%; DC50 (BRAF V600E; [7]): < 1000 nM; Emax (BRAF V600E; [5]): 50 to 90%
CN(CCO)S(=O)(=O)Nc1ccc(F)c(Oc2ccc3ncc([C@@H]4COC5(CCN(C6CCC(c7cc8c(cc7F)c(N7CCC(=O)NC7=O)nn8C)CC6F)CC5)C4)nc3c2)c1C#N (single isomer, unassigned) [Compound 172] | > 10000 nM | – | – | < 1000 nM | 50 to 90% | 1000 to 10000 nM | 50 to 90% | –
CCN(C)S(=O)(=O)Nc1ccc(F)c(Oc2ccc3ncc(OC4CCN(C5CCC(c6cc7c(cc6F)c(N6CCC(=O)NC6=O)nn7C)CC5)CC4)nc3c2)c1C#N (single isomer, unassigned) [Compound 124, 7-[2-cyano-3-[[ethyl(methyl)sulfamoyl]amino]-6-fluoro-phenoxy]-2-[[1-[4-[3-(2,4-dioxohexahydropyrimidin-1-yl)-5-fluoro-1-methyl-indazol-6-yl]cyclohexyl]-4-piperidyl]oxy]quinoxaline] | 1000 to 10000 nM | – | – | < 1000 nM | < 50% | > 10000 nM | 50 to 90% | –
CCN(C)S(=O)(=O)Nc1ccc(F)c(Oc2ccc3ncc([C@@H]4COC5(CCN(C6CCC(c7cc8c(cc7F)c(N7CCC(=O)NC7=O)nn8C)CC6F)CC5)C4)nc3c2)c1C#N (single isomer, unassigned) [Compound 163] | < 1000 nM | – | – | < 1000 nM | – | 1000 to 10000 nM | 50 to 90% | Emax (BRAF V600E; [5]): < 50%
Cn1nc(N2CCC(=O)NC2=O)c2cc(F)c(N3CC4(CC(N5CCC6(CC5)C[C@@H](n5cnc7ccc(Oc8c(F)ccc(NS(=O)(=O)N9CCOCC9)c8C#N)cc7c5=O)CO6)C4)C3)cc21 [Compound 242, N-[2-cyano-3-[3-[(3R)-8-[2-[3-(2,4-dioxohexahydropyrimidin-1-yl)-5-fluoro-1-methyl-indazol-6-yl]-2-azaspiro[3.3]heptan-6-yl]-1-oxa-8-azaspiro[4.5]decan-3-yl]-4-oxo-quinazolin-6-yl]oxy-4-fluoro-phenyl]morpholine-4-sulfonamide] | 1000 to 10000 nM | – | – | < 1000 nM | 50 to 90% | > 10000 nM | 50 to 90% | –
Cn1nc(N2CCC(=O)NC2=O)c2cc(F)c(C3CCC(N4CCC5(CC4)CC(n4cnc6ccc(Oc7c(F)ccc(NS(=O)(=O)N8CC[C@@H](F)C8)c7C#N)cc6c4=O)C5)CC3)cc21 (single isomer, unassigned) [Compound 123] | < 1000 nM | < 1000 nM | *** (<=50%) | < 1000 nM | – | – | – | HiBiT-Degradation A375.10 BRAF 2 hours Emax (BRAF V600E; [2]): *** (<=50%); DC50 (BRAF V600E; A375.10 cells, BRAF V600E, 6 hours, inflection point, read-out: HiBiT-Degradation A375.10 BRAF 6 hours IP): < 1000 nM; DC50 (BRAF V600E; A375.10 cells, BRAF V600E, 6 hours, read-out: HiBiT-Degradation A375.10 BRAF 6 hours DC50): < 1000 nM; HiBiT-Degradation A375.10 BRAF 6 hours Emax (BRAF V600E; A375.10 cells, BRAF V600E, 6 hours, residual protein remaining): *** (<=50%); HiBiT-Degradation A375.10 BRAF 24 hours Emax (BRAF V600E; A375.10 cells, HiBiT, BRAF V600E, 24 hours): *** (<=50%); DC50 (BRAF V600E; [6]): < 1000 nM; DC50 (BRAF V600E; [7]): < 1000 nM
Cn1nc(N2CCC(=O)NC2=O)c2cc(F)c(N3CC4(CC(N5CCC6(CC5)CC(n5cnc7ccc(Oc8c(F)ccc(NS(=O)(=O)N9CCOCC9)c8C#N)cc7c5=O)C6)C4)C3)cc21 [Compound 262, N-[2-cyano-3-[3-[7-[2-[3-(2,4-dioxohexahydropyrimidin-1-yl)-5-fluoro-1-methyl-indazol-6-yl]-2-azaspiro[3.3]heptan-6-yl]-7-azaspiro[3.5]nonan-2-yl]-4-oxo-quinazolin-6-yl]oxy-4-fluoro-phenyl]morpholine-4-sulfonamide] | < 1000 nM | – | – | < 1000 nM | < 50% | < 1000 nM | 50 to 90% | –
CCN(C)S(=O)(=O)Nc1ccc(F)c(Oc2ccc3ncn([C@H]4CCC5(CCN(C6CCC(c7ccc(NC8CCC(=O)NC8=O)cc7F)CC6)CC5)C4)c(=O)c3c2)c1C#N (single isomer, unassigned) [Compound 25] | 1000 to 10000 nM | < 1000 nM | ** (<90% and >50%) | < 1000 nM | – | – | – | HiBiT-Degradation A375.10 BRAF 2 hours Emax (BRAF V600E; [2]): ** (<90% and >50%)
CCN(C)S(=O)(=O)Nc1ccc(F)c(Oc2ccc3ncn([C@H]4COC5(C4)CN(C4CCC(c6cc7c(cc6F)c(N6CCC(=O)NC6=O)nn7C)CC4)C5)c(=O)c3c2)c1C#N (single isomer, unassigned) [Compound 235] | 1000 to 10000 nM | > 10000 nM | – | < 1000 nM | < 50% | – | 50 to 90% | –
CCN(C)S(=O)(=O)Nc1ccc(F)c(Oc2ccc3ncn(C4CCC5(CC4)CCN(C4CCC(c6cc7c(cc6F)c(N6CCC(=O)NC6=O)nn7C)CC4)CC5)c(=O)c3c2)c1C#N (single isomer, unassigned) [Compound 13, 9-[6-[2-cyano-3-[[ethyl(methyl)sulfamoyl]amino]-6-fluoro-phenoxy]-4-oxo-quinazolin-3-yl]-3-[4-[3-(2,4-dioxohexahydropyriimidin-1-yl)-5-fluoro-1-methyl-indazol-6-yl]cyclohexyl]-3-azaspiro[5.5]undecane] | < 1000 nM | > 10000 nM | ** (<90% and >50%) | < 1000 nM | – | – | – | HiBiT-Degradation A375.10 BRAF 2 hours Emax (BRAF V600E; [2]): *** (<=50%)
CCN(C)S(=O)(=O)Nc1ccc(F)c(Oc2ccc3ncn(CCC4CCN(C5CCC(c6cc7c(cc6F)c(N6CCC(=O)NC6=O)nn7C)CC5)CC4)c(=O)c3c2)c1C#N (single isomer, unassigned) [Compound 137, 6-[2-cyano-3-[[ethyl(methyl)sulfamoyl]amino]-6-fluoro-phenoxy]-3-[2-[1-[4-[3-(2,4-dioxohexahydropyrimidin-1-yl)-5-fluoro-1-methyl-indazol-6-yl]cyclohexyl]-4-piperidyl]ethyl]-4-oxo-quinazoline] | < 1000 nM | – | – | < 1000 nM | 50 to 90% | 1000 to 10000 nM | 50 to 90% | –
CN(CCO)S(=O)(=O)Nc1ccc(F)c(Oc2ccc3ncn(C4CC5(CCN(C6CCC(c7cc8c(cc7F)c(N7CCC(=O)NC7=O)nn8C)CC6F)CC5)C4)c(=O)c3c2)c1C#N (single isomer, unassigned) [Compound 146, 6-[2-cyano-6-fluoro-3-[[2-hydroxyethyl(methyl)sulfamoyl]amino]phenoxy]-3-[7-[4-[3-(2,4-dioxohexahydropyrimidin-1-yl)-5-fluoro-1-methyl-indazol-6-yl]-2-fluoro-cyclohexyl]-7-azaspiro[3.5]nonan-2-yl]-4-oxo-quinazoline] | > 10000 nM | > 10000 nM | ** (<90% and >50%) | < 1000 nM | – | – | – | HiBiT-Degradation A375.10 BRAF 2 hours Emax (BRAF V600E): ** (<90% and >50%)
